From patent US6391301B1, “Agent for identifying and treating metastasizing tumors” (Forschungszentrum Karlsruhe GmbH, priority 1998, dated 2002)

tested on: M-N#1 antibody binding to proteins in lysates from MT-450 cells; experiment: Competition of M-N#1 binding with fucose and galactose (immunoprecipitation); set-up: species or system rat; details: increasing amounts of sugar, lysates from radiolabelled MT-450 cells
Experimental: Immunoprecipitation: cells were labeled by incubation with (^35S)L-methionine ([…]) in methionine-free RPMI medium supplemented with dialyzed FCS for 4 h. For a pulse-chase analysis, cells were incubated with (^35S)L-methionine ([…]) in methionine-free RPMI medium supplemented with dialyzed FCS for 15 minutes, then washed and incubated further with methionine-containing medium. For immunoprecipitations, cells were lyzed in RIPA (radioimmunoprecipitation) buffer, and aliquots were immunoprecipitated with 5 μg of antibodies. To purify proteins which bind to Ulex europaeus lectin, the cells were lyzed with PBS/1% NP40/1 mM PMSF and centrifuged, and the lysates were incubated with Ulex europaeus lectin beads at 4° C. for one hour. The beads were then washed three times with PBS, and the excess buffer was removed. The beads were boiled in 1% SDS/20 mM phosphate at pH 7.0. A 20-fold excess of RIPA buffer was then added, and the supernatant was used for the immunoprecipitation after removal of the Ulex europaeus lectin beads. In experiments in which immunoprecipitated proteins were treated with 0.5 U of N-glycosidase F, 2.5 mU of O-glycosidase or 5 mU of neuraminidase, the antigen-antibody matrix bead complex was initially washed in 100 mM phosphate buffer, pH 7.0. Buffer was removed and then the matrix beads were boiled in 5 μl of 1% SDS/20 mM phosphate, pH 7.0, for 5 minutes. The enzymes were then added in 45 μl of 20 mM phosphate buffer (pH 7.0)/1 mM CaSO4. The efficiency of the enzyme reaction was confirmed by comparison with similar digestive processes on immunoprecipitated CD44v4-v7 protein, which is digested by each of said enzymes. Immunoprecipitated proteins were removed by SDS (sodium dodecyl sulfate) PAGE (polyacrylamide gel electrophoresis). Gels were treated with PPO (2,5-diphenyloxazole) and exposed to X-ray sensitive film material.
Competition of M-N#1 binding with fucose and galactose. […]

SMILES	Effect on protein binding to M-N#1 antibody
C[C@@H](O)[C@H](O)[C@H](O)[C@@H](O)C=O [D-fucose]	inhibited
O=C[C@H](O)[C@@H](O)[C@@H](O)[C@H](O)CO [D-galactose]	inhibited
C[C@H](O)[C@@H](O)[C@@H](O)[C@H](O)C=O [L-Fucose]	no effect
